Results: patent US9232792B2, “Method for promoting plant growth” (SUMITOMO CHEMICAL COMPANY, LIMITED, priority 2011, dated 2016)

Legend:
[1] = test system: Rice (cultivar: Nipponbare); assay: Test Example 2: reduction of low-temperature stress by immersion treatment of rice; assay type: in vivo; settings: 1 ppm in hydroponic solution; 4° C. for 5 days, then 4 days at 25° C.
Description: Rice (cultivar: Nipponbare)
A necessary amount of rice seeds was immersed in an aqueous solution of 1,000 ppm of Benlate, and incubated at 30° C. overnight under dark conditions. The aqueous solution of Benlate was replaced with distilled water, and the seeds were further incubated at 30° C. overnight under dark conditions to stimulate the germination of the seeds. A filter paper was placed on the holes of a plug tray having 406 holes, and the rice seeds obtained after the stimulation of germination were sown on the filter paper. To the rice seeds was added a kimura B solution for hydroponics (see Plant Science 119: 39-47 (1996)) at ½ concentration, and cultivated for 5 days in an artificial weather control room under the following conditions: • temperature: daytime 28° C./night 23° C., humidity: 70%, illuminance: 8,500 lux, and day length: 12 hours. <Compound Treatment> […]
Four (4) days after the cultivation, the overground part of each rice plant in the treated group was taken a photograph, and the area of a green portion in the obtained image data was measured with image analysis software Win ROOF (manufactured by MITANI CORPORATION) to determine the green area of the overground part of the plant. In the treated group, the experiment was performed in duplication and the average value of the green area per individual was calculated. […]

[2] = test system: Tobacco (Nicotiana benthamiana); assay: Test Example 4: reduction of low-temperature stress in hydroponics of tobacco; assay type: in vivo; settings: 10 ppm in medium; 1.5±1.0° C. for 7 days, then 3 days at 22° C.
Description: Tobacco (Nicotiana benthamiana)
DMSO solutions containing each of the present compounds 1 to 4 at a concentration of 10,000 ppm were prepared. A 1/1,000 volume of each DMSO solution was added to a Murashige-and-Skoog medium (a medium containing 2.3 g of a mixture of salts for Murashige-and-Skoog medium (manufactured by Wako. Pure Chemical Industries, Ltd.), 200 mg of myoinositol (manufactured by Sigma-Aldrich), 2 mg of nicotinic acid (manufactured by Wako Pure Chemical Industries, Ltd.), 2 mg of pyridoxine hydrochloride (manufactured by Wako Pure Chemical Industries, Ltd.), 20 mg of thiamine hydrochloride (manufactured by Wako Pure Chemical Industries, Ltd.), 20 g of sucrose (manufactured by Wako Pure Chemical Industries, Ltd.), 1 g of MES (manufactured by DOJINDO LABORATORIES) in 1 L of water, adjusted to pH 5.8) at ½ concentration to obtain a medium containing the test compound at a concentration of 10 ppm. These media were used in the treated-group.
In a non-treated group, a medium obtained by adding a 1/1,000 volume of DMSO to a Murashige-and-Skoog medium at ½ concentration was used.
The seeds of tobacco (Nicotiana benthamiana) were sown on 5 μL of the medium, and incubated at 22° C. overnight. Thereto was added 45 μL of a medium containing each present compound at a concentration of 10 ppm, and cultivated for 7 days under the conditions of an illuminance of 4,000 lux, a temperature of 22° C. and a day length of 16 hours, thereby treating the seedlings of tobacco (Nicotiana benthamiana) with the test compound.
In the non-treated group, 45 μL of a medium obtained by adding a 1/1,000 volume of DMSO to a Murashige-and-Skoog medium at ½ concentration was added, and treated in the same manner as above.
The seedlings of tobacco (Nicotiana benthamiana) treated with the present compounds were cultivated for 7 days under the conditions of an illuminance of 2,000 lux, a temperature of 1.5±1.0° C., and a day length of 16 hours, thereby subjecting to low-temperature stress treatment.
The plants of tobacco (Nicotiana benthamiana) subjected to low-temperature stress treatment was cultivated for 3 days under the conditions of an illuminance of 4,000 lux, a temperature of 22° C., and a day length of 16 hours, and then the green leaf area of the plants was visually evaluated. Completely dead plant was scored as 0, the plant without low-temperature stress treatment was scored as 5, the green area was rated on a 6-point scale in ⅕ increments, and the score of not less than 1 was regarded as effective in reducing the stress. As a result of visual evaluation, the green leaf area of plants in the treated group, wherein the plants were treated with the present compound 1, 2, 3 or 4 was much larger than that in the non-treated group.

Structure (SMILES): O=C(O)c1cc2cc(C(F)(F)F)ccc2s1 [The present compound 1, 5-(trifluoromethyl)benzo[b]thiophene-2-carboxylic acid]
- green area of the overground part of the plant vs non-treated group [1]: much larger
- green leaf area of plants (visual evaluation) vs non-treated group [2]: much larger
